Reference: ChEMBL document CHEMBL1127884, “Inhibition of stromelysin-1 (MMP-3) by peptidyl phosphinic acids” (Bioorg Med Chem Lett, 1994)
pKi: −log10 of the molar value.

Experiments:
[1] = target: T1, Interstitial collagenase (Homo sapiens) (UniProt P03956); experiment: In vitro inhibition of human fibroblast collagenase at a 10 uM.
T1 sequence (whole entry): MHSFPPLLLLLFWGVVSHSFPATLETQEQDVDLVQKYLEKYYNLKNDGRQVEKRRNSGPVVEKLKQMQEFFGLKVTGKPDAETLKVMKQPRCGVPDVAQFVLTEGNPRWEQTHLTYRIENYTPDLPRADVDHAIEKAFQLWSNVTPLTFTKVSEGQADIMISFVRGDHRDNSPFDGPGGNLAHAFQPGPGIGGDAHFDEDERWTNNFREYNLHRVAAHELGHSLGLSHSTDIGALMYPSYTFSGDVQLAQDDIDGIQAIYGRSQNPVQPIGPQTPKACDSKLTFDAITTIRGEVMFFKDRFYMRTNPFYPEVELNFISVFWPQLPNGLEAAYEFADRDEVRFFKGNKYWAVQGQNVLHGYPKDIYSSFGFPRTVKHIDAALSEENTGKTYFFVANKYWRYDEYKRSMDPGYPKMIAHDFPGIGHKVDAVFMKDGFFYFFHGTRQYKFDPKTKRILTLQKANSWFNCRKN

Stromelysin-1 [2] = target: T2, Stromelysin-1 (Homo sapiens, UniProt P08254); experiment: In vitro inhibition of human recombinant stromelysin-1.
Target sequence in this assay (P08254 whole entry): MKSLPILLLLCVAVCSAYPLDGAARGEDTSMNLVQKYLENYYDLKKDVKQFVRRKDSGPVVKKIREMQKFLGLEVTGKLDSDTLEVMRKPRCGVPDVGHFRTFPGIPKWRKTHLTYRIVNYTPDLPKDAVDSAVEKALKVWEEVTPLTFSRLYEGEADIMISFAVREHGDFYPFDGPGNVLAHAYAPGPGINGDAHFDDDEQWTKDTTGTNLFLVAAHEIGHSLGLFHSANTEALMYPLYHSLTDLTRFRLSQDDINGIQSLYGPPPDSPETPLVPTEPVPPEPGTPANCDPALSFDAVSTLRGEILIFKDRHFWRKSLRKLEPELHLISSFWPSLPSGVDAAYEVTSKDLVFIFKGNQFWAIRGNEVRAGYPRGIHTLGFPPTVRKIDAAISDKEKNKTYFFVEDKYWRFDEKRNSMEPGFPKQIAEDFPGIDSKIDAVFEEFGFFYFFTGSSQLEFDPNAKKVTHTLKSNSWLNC

Interstitial collagenase = target: T3, Interstitial collagenase (Homo sapiens, UniProt P03956); experiment: In vitro inhibition of human fibroblast collagenase.
T3 sequence (P03956 whole entry): T1 sequence (whole entry)

Stromelysin-1 [3] = target: T2, Stromelysin-1; experiment: In vitro inhibition of human recombinant stromelysin-1 at a concentration of 5 uM.
Target sequence in this assay (P08254 100-477 limits assumed): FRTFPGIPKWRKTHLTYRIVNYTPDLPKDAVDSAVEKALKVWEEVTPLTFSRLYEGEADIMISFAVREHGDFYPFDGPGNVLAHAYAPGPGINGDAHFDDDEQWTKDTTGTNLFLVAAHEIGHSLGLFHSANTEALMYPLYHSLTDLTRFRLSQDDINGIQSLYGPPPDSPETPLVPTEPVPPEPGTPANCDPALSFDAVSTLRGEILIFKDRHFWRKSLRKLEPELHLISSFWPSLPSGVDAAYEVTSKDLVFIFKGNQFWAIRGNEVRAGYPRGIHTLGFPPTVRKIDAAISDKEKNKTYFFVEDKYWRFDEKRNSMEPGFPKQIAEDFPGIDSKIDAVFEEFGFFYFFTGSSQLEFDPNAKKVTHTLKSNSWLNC

SMILES | inhibition [1] | pKi (Stromelysin-1 [2]) | pKi (Interstitial collagenase) | inhibition (Stromelysin-1 [3])
CC(C)C[C@H](NC(=O)C(CCc1ccccc1)CP(=O)(O)CNCc1ccccc1)C(=O)Nc1ccccc1 (stereo partly specified) | 0% | 5.72 | – | –
CC(=O)N[C@@H](C)C(=O)N[C@@H](C)P(=O)(O)CC(CCc1ccccc1)C(=O)N[C@@H](CC(C)C)C(=O)Nc1ccccc1 (stereo partly specified) | 0% | 6.47 | – | –
CC(C)C[C@H](NC(=O)C(CCc1ccccc1)CP(=O)(O)CNC(=O)[C@H](CC(N)=O)NC(=O)OCc1ccccc1)C(=O)Nc1ccccc1 (stereo partly specified) | 14% | 6.22 | – | –
CC(C)C[C@H](NC(=O)C(CCc1ccccc1)CP(=O)(O)CNC(=O)[C@H](C)NC(=O)C1CCCN1C(=O)c1ccccc1)C(=O)Nc1ccccc1 (stereo partly specified) | 39% | 7.62 | – | –
CC(C)C[C@H](NC(=O)C(CCc1ccccc1)CP(=O)(O)CNC(=O)[C@H](CCCCN)NC(=O)OCc1ccccc1)C(=O)Nc1ccccc1 (stereo partly specified) | 18% | 5.34 | – | –
CC(C)C[C@H](NC(=O)C(CCc1ccccc1)CP(=O)(O)CNC(=O)[C@H](C)NC(=O)OCc1ccccc1)C(=O)Nc1ccccc1 (stereo partly specified) | 0% | 6.55 | – | –
CC(C)CC(NC(=O)C(CCc1ccccc1)CP(=O)(O)CNC(=O)CN1C(=O)c2ccccc2C1=O)C(=O)Nc1ccccc1 (stereo unspecified) | 14% | 6.39 | – | –
CC(C)C[C@H](NC(=O)C(CCc1ccccc1)CP(=O)(O)[C@H](C)NC(=O)OCc1ccccc1)C(=O)Nc1ccccc1 (stereo partly specified) | – | 6.48 | 5.12 | –
CC(C)C[C@H](NC(=O)C(CCc1ccccc1)CP(=O)(O)[C@H](C)NC(=O)CN1C(=O)c2ccccc2C1=O)C(=O)Nc1ccccc1 (stereo partly specified) | 0% | 5.62 | – | –
CC(C)C[C@H](NC(=O)C(CCc1ccccc1)CP(=O)(O)CNC(=O)CNC(=O)OCc1ccccc1)C(=O)Nc1ccccc1 (stereo partly specified) | 4% | 5.85 | – | –
CC(C)C[C@H](NC(=O)C(CCc1ccccc1)CP(=O)(O)CNC(=O)OCc1ccccc1)C(=O)Nc1ccccc1 (stereo partly specified) | – | 6.55 | 4.80 | –
CC(=O)N[C@@H](C)C(=O)N[C@@H](C)C(=O)N[C@@H](C)P(=O)(O)CC(CCc1ccccc1)C(=O)N[C@@H](CC(C)C)C(=O)Nc1ccccc1 (stereo partly specified) | 32% | 7.38 | – | –
CC(C)C[C@H](NC(=O)C(CCc1ccccc1)CP(=O)(O)CNC(=O)Cc1ccccc1)C(=O)Nc1ccccc1 (stereo partly specified) | 0% | 6.03 | – | –
CC(C)C[C@H](NC(=O)C(CCc1ccccc1)CP(=O)(O)CNC(=O)[C@H](CCC(=O)O)NC(=O)OCc1ccccc1)C(=O)Nc1ccccc1 (stereo partly specified) | 12% | 6.43 | – | –

More lines, now with the values ahead:

inhibition [1] | pKi (Stromelysin-1 [2]) | pKi (Interstitial collagenase) | inhibition (Stromelysin-1 [3]) | SMILES
0% | 5.89 | – | – | CCCC[C@H](NC(=O)OCc1ccccc1)C(=O)NCP(=O)(O)CC(CCc1ccccc1)C(=O)N[C@@H](CC(C)C)C(=O)Nc1ccccc1 (stereo partly specified)
7% | 5.72 | – | – | CC(C)C[C@H](NC(=O)C(CCc1ccccc1)CP(=O)(O)[C@H](C)NCc1ccccc1)C(=O)Nc1ccccc1 (stereo partly specified)
9% | 6.68 | – | – | CC(C)C[C@H](NC(=O)C(CCc1ccccc1)CP(=O)(O)CNC(=O)[C@H](Cc1c[nH]cn1)NC(=O)OCc1ccccc1)C(=O)Nc1ccccc1 (stereo partly specified)
– | 7.70 | 5.29 | – | CC(C)C[C@H](NC(=O)C(CCc1ccccc1)CP(=O)(O)[C@H](C)NC(=O)[C@H](C)NC(=O)C1CCCN1C(=O)c1ccccc1)C(=O)Nc1ccccc1 (stereo partly specified)
4% | 6.15 | – | – | CC(C)C[C@H](NC(=O)C(CCc1ccccc1)CP(=O)(O)CNC(=O)[C@H](Cc1ccccc1)NC(=O)OCc1ccccc1)C(=O)Nc1ccccc1 (stereo partly specified)
0% | – | – | 57% | CC(=O)N1CCCC1C(=O)N[C@@H](C)P(=O)(O)CC(CCc1ccccc1)C(=O)N[C@@H](CC(C)C)C(=O)Nc1ccccc1 (stereo partly specified)
– | 8.21 | 5.54 | – | CC(=O)N1CCCC1C(=O)N[C@@H](C)C(=O)N[C@@H](C)P(=O)(O)CC(CCc1ccccc1)C(=O)N[C@@H](CC(C)C)C(=O)Nc1ccccc1 (stereo partly specified)
60% | 7.82 | – | – | CC(=O)N1CCCC1C(=O)N[C@@H](C)C(=O)NCP(=O)(O)CC(CCc1ccccc1)C(=O)N[C@@H](CC(C)C)C(=O)Nc1ccccc1 (stereo partly specified)
0% | 6.25 | – | – | CC(C)C[C@H](NC(=O)C(CCc1ccccc1)CP(=O)(O)CNC(=O)[C@H](Cc1ccc(O)cc1)NC(=O)OCc1ccccc1)C(=O)Nc1ccccc1 (stereo partly specified)
